Experimental data taken from patent US20230026696A1, “TRPV4 RECEPTOR LIGANDS” (UNIVERSITY OF UTAH RESEARCH FOUNDATION, priority 2019, published 2023).
Where a name gives a salt, the structure may show the parent alone.

What was measured:
[1] = tested on: intraocular pressure (IOP); experiment: In vivo tonometric IOP assay in microbead mouse model of ocular hypertension
[2] = tested on: intraocular pressure (IOP); details: applied at 0.3-1.0 mM; Ryskamp et al., Sci Rep 2016; cited from earlier work
[3] = molecular target: T1, human TRPV4 (Homo sapiens, UniProt Q9HBA0); experiment: Fluorometric cell-based Ca2+ flux assay, HEK-293 cells stably overexpressing human TRPV4; details: for IC50: HEK-293 stably overexpressing human TRPV4, agonist GSK1016790A 30 nM
T1 construct: expressed in transfected cells
How it was run: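 HEK-293 cells stably overexpressing human TRPV4, Fluo 4-loaded, pre-incubated 30 min at 37° C with compound, then stimulated with 30 nM GSK1016790A (final). Max ΔF/s over 1 min, media-corrected, expressed relative to no-antagonist control; IC50 from ≥8 concentrations, ≥3 replicates.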

[4] = molecular target: T2, human TRPA1 (Homo sapiens, UniProt O75762); experiment: Selectivity Ca2+ flux assay, TRPA1 stably over-expressed in HEK-293 cells; type: cell-based; details: agonist 2,4-ditert butylphenol (50 μM)
T2 construct: expressed in transfected cells
Method: (§1) To determine selectivity of the various test compounds for TRPV4, select compounds with activity in the TRPV4 fluorometric cell-based Ca^2+ flux assays were also tested for inhibition of human TRPA1 stably over-expressed in HEK-293 cells, TRPM8 stably over-expressed in HEK-293 cells, TRPV3 stably over-expressed in HEK-293 cells, and TRPV1 stably overexpressed in human lung epithelial (BEAS-2B) cells. The assays were conducted substantially as described above for HEK-293 cells that stably overexpress TRPV4, although for TRPV1, the BEAS-2B cells were maintained in LHC-9 media containing Geneticin (300 μg/mL) and were loaded with Fluo-4AM at room temperature. The agonist for TRPA1 was 2,4-ditert butylphenol (50 μM), for TRPM8 was icilin (50 μM), for TRPV3 was carvacrol (300 μM), and for TRPV1 was nonivamide (5 μM). All other aspects of the assay described above were the same.

[5] = molecular target: T3, TRPV1 (Homo sapiens, UniProt Q8NER1); experiment: Selectivity Ca2+ flux assay, TRPV1 stably overexpressed in human lung epithelial (BEAS-2B) cells; type: cell-based; details: agonist nonivamide (5 μM)
T3 construct: expressed in transfected cells
Method: as §1

[6] = molecular target: T4, TRPV3 (Homo sapiens, UniProt Q8NET8); experiment: Selectivity Ca2+ flux assay, TRPV3 stably over-expressed in HEK-293 cells; type: cell-based; details: agonist carvacrol (300 μM)
T4 construct: expressed in transfected cells
T4 sequence (Q8NET8 1-790): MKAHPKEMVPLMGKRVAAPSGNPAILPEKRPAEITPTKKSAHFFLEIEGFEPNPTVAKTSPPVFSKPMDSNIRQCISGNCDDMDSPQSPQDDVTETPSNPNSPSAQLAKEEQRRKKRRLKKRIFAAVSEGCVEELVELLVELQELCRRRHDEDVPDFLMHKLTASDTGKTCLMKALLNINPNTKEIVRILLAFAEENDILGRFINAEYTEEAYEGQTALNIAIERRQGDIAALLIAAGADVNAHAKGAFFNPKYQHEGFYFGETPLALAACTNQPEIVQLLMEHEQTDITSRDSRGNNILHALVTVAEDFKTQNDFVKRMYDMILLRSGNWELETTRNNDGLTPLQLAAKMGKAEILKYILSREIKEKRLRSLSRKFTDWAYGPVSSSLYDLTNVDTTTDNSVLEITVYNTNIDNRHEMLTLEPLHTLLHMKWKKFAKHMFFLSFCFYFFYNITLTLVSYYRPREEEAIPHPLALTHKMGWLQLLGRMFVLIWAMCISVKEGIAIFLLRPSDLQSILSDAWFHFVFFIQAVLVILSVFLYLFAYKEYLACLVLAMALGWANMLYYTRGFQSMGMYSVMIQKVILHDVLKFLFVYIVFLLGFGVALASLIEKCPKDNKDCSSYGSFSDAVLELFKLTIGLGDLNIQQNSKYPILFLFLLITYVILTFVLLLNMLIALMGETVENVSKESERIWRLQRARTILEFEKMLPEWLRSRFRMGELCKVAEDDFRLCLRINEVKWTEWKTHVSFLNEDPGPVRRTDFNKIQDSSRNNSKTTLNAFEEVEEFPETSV
Method: as §1

[7] = molecular target: T5, TRPM8 (Homo sapiens, UniProt Q7Z2W7); experiment: Selectivity Ca2+ flux assay, TRPM8 stably over-expressed in HEK-293 cells; type: cell-based; details: agonist icilin (50 μM)
T5 construct: expressed in transfected cells
Method: as §1

[8] = tested on: intraocular pressure (IOP); details: OAG-affected dogs; literature; cited from earlier work
[9] = tested on: intraocular pressure (IOP); experiment: In vivo tonometric IOP assay in microbead mouse model of ocular hypertension; details: FIG. 2 right panel; P<0.01 / P<0.001, two-way ANOVA
Method: FIG. 1 is a graph showing the effect that two concentrations of topical compound 11 (0.01% and 0.1%), 0.5% timolol, and control PBS had on IOP in the microbead (MB) mouse model of ocular hypertension (N=3 separate experiments, with 7-10 mice per experimental cohort). Error bars=±S.E.M. Ocular hypertension in the mouse model of primary open angle glaucoma (POAG) was induced with intracameral injection of polystyrene microbeads. Antagonist stock solutions (10 mM) were prepared in DMSO, the final concentrations were made in PBS diluted to <0.0001% DMSO.
FIG. 2 is a bar chart showing the cumulative data for pre-IOP elevation cohorts of mouse eyes (N≥3 separate experiments, with 7-10 mice per experimental cohort). Left panel: the IOP data are plotted as % of the control value of the timolol-treated eye cohort. Middle panel: MB injection elevated IOP in all experimental cohorts.
A tonometric assay was used to measured IOP changes in mice models of ocular hypertension over a period of weeks following topical application of the compounds.
To prepare the mice models of ocular hypertension, mice were anesthetized with an intraperitoneal (IP) injection of ketamine/xylazine (90 mg/10 mg/kg of body weight). Eye drops of 0.5% proparacaine hydrochloride with 1% tropicamide ophthalmic solution (Bausch & Lomb) were applied to numb and dilate the eyes of the mice. IOP was elevated in the ipsilateral eye by injecting 2 μl of polystyrene microbeads (7.8 μm FluoSpheres; Bangs Laboratories) with a Hamilton syringe into the anterior chamber over 60 seconds. The contralateral eye was injected with phosphate buffered saline (PBS).
A rebound tonometer was used to measure IOP at 1, 2, 6 and 10 hours post-injection after topical administration of Compounds 11 and 52 and timolol, a known medication for treatment of IOP associated with ocular hypertension and glaucoma. The IOP was determined from the means of 10 to 20 readings, following the protocol described in Ryskamp et al., Sci Rep 6:30583, 2016. […]

T1 sequence (Q9HBA0 whole entry): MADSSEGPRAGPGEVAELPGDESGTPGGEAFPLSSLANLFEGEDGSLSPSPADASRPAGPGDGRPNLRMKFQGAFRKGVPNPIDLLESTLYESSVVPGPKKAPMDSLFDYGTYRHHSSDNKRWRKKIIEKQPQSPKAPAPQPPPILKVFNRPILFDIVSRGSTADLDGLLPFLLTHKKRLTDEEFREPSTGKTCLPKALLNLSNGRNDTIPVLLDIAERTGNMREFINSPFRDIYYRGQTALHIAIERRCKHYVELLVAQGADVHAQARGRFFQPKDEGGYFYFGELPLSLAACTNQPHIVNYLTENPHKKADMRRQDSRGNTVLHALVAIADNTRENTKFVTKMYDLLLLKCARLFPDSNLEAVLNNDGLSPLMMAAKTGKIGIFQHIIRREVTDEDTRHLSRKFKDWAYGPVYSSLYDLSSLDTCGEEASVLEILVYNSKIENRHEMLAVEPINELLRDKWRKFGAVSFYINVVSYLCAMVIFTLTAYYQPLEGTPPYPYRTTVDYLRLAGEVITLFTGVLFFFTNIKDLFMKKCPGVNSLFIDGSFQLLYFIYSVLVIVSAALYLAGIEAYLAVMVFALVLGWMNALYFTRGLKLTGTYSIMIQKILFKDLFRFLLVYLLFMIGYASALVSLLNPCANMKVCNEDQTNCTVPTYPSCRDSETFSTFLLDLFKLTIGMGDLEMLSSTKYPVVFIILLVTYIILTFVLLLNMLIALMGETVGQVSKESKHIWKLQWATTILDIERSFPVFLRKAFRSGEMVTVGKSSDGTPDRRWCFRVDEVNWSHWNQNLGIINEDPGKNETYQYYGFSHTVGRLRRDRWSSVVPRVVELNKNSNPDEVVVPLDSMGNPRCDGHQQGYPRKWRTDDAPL
T3 sequence (Q8NER1 whole entry): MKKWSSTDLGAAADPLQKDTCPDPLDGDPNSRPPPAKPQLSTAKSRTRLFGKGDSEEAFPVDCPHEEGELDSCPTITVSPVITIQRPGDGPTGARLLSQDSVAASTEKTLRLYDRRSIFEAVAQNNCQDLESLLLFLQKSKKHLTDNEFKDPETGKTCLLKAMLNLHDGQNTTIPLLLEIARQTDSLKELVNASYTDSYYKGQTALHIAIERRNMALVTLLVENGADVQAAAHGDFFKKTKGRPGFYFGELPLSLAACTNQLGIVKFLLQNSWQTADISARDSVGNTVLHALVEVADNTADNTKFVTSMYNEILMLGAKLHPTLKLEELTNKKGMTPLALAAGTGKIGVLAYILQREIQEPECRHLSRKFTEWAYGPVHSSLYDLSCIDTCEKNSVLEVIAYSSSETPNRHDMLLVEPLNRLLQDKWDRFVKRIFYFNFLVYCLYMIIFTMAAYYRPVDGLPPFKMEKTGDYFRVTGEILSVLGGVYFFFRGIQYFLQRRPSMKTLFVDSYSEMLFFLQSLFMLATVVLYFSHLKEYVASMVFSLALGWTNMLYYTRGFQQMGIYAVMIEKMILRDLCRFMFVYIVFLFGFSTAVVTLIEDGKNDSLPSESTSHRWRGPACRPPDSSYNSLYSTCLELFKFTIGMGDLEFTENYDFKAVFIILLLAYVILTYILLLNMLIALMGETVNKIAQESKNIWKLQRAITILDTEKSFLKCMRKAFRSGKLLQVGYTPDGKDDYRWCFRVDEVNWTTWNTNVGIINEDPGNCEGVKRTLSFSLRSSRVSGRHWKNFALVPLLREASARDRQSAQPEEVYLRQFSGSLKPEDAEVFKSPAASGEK
T5 sequence (Q7Z2W7 whole entry): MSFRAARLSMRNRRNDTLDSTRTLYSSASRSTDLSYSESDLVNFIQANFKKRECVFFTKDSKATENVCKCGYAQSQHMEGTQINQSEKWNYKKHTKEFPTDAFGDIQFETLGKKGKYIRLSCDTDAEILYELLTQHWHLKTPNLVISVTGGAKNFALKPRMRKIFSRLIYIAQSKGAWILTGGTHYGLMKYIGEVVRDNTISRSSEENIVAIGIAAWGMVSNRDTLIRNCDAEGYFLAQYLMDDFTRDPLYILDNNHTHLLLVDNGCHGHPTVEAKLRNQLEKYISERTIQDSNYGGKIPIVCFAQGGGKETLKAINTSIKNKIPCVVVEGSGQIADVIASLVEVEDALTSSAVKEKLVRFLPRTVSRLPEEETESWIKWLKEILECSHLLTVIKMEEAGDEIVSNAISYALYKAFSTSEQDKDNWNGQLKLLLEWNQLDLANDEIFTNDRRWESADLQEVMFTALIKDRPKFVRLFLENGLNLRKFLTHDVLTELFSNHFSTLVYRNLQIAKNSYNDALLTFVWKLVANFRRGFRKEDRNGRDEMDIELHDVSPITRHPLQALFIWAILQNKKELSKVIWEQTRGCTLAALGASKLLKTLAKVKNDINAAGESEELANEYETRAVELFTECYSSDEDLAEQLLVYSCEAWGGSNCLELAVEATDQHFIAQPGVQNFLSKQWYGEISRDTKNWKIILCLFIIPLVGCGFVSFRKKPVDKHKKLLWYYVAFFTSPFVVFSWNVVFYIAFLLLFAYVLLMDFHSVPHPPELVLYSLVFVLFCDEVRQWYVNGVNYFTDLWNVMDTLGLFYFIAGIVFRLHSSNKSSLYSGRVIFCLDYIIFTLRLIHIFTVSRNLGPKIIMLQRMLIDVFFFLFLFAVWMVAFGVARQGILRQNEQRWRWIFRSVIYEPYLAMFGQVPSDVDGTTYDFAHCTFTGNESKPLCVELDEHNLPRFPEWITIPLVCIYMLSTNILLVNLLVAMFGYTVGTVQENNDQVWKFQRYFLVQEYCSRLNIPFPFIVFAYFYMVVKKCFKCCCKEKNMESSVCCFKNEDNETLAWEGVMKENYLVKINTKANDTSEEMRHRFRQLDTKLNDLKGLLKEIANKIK
T2 sequence (O75762 whole entry): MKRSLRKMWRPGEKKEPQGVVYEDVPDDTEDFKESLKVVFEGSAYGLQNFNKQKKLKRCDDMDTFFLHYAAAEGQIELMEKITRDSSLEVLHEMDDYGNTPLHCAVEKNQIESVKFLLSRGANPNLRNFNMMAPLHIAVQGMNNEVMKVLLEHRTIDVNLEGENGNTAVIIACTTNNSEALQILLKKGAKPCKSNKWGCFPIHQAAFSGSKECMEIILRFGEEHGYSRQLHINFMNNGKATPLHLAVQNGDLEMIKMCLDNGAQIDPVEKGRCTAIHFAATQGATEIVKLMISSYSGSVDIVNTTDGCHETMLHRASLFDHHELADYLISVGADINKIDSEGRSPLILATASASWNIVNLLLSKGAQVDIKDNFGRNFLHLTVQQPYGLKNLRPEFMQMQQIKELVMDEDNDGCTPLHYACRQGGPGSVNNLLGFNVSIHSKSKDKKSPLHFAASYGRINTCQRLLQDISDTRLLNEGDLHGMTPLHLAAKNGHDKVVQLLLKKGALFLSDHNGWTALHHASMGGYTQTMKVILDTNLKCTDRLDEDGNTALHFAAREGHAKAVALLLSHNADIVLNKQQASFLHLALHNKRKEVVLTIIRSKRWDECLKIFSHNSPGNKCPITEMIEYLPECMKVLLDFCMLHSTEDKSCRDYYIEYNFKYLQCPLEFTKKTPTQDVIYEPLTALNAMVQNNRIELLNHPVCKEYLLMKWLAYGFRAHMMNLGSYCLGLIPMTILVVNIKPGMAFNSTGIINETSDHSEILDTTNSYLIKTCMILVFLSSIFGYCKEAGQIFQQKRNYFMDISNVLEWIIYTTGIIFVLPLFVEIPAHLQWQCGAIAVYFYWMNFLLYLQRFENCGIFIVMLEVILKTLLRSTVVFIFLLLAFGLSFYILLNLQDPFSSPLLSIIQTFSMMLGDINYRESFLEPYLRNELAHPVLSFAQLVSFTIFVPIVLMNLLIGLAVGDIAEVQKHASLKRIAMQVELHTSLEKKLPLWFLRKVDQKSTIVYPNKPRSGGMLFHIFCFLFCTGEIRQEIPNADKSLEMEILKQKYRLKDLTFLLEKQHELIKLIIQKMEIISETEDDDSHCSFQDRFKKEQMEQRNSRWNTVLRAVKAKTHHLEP

| SMILES | IC50 [3] [µM] | IC50 [4] [µM] | IC50 [5] [µM] | IC50 [6] [µM] | IC50 [7] [µM] | other results |
| --- | --- | --- | --- | --- | --- | --- |
| Cc1c(C(=O)Nc2cccc(C(F)(F)F)c2)cc(-c2ccccc2)n1CCCN1CCOCC1 [HC067047, reference compound] | – | – | – | – | – | IOP levels in MB-treated eyes, intraperitoneal injection ([1]; FIG. 2 right panel, intraperitoneal): significantly lowered IOP levels; IOP in hypertensive mouse eyes [2]: lowered IOP |
| N#Cc1ccc(OCC2(CNCCO)CN(S(=O)(=O)c3ccc(Cl)cc3Cl)C2)cc1F [Compound 17, 4-((1-((2,4-Dichlorophenyl)sulfonyl)-3-(((2-hydroxyethyl)amino)methyl)azetidin-3-yl)methoxy)-2-fluorobenzonitrile] | 0.0002 to 0.0006 | > 35.5 | 5.3 | > 50 | 25.4 | – |
| CCN[C@H]1C[C@H](C)S(=O)(=O)c2sc(S(N)(=O)=O)cc21 [dorzolamide HCl] | – | – | – | – | – | IOP lowering [8]: 3.8-5.0 mm Hg |
| CNCC1(COc2ccc(C#N)c(F)c2)CN(S(=O)(=O)c2ccc(Cl)cc2Cl)C1 [Compound 16, 4-((1-((2,4-Dichlorophenyl)sulfonyl)-3-((methylamino)methyl)azetidin-3-yl)methoxy)-2-fluorobenzonitrile hydrochloride] | 0.0006 | 20.7 | 6 | > 100 | 17.8 | selectivity for TRPV4 versus TRPA1, TRPM8, TRPV3 and TRPV1 ([3]; comparison of IC50 values): substantially more selective for TRPV4 |
| CC(C)(C)NC[C@H](O)COc1nsnc1N1CCOCC1 [timolol, reference compound] | – | – | – | – | – | IOP after topical administration ([1]; mouse model of ocular hypertension, compounds 1 μM and 10 μM, timolol 0.5%, FIG. 1): lowered the IOP; protection of RGCs ([1]; mouse model of ocular hypertension, topical, compounds 1 μM and 10 μM, timolol 0.5%): protected RGCs; IOP levels in MB-treated eyes, topical application [9]: significantly lowered IOP levels |
